# Laboratory results reported in patent US8889724B2, “Tetrazole compounds for reducing uric acid” (Wellstat Therapeutics Corporation, priority 2008, dated 2014).
# Where “and” joins values, the source holds several entries; their conditions need not be identical. Equal entries are not always repeated. Where two headings read alike, the source gives them in different places.
# Columns and labels:
# human URAT1 = human URAT1 (Homo sapiens (Human), UniProt Q96S37); test: URAT1 inhibition assay: [8-14C] urate uptake in hURAT1-HEK cells; assay type: cell-based
# Protocol: URAT1 (Uric Acid Transporter 1) is expressed on the apical membrane in renal tubules. It mediates the re-uptake of uric acid from the urine into the blood.
# A suitable assay involves transfection of cells (e g human embryonic kidney cells; “HEK”) with a vector encoding human URAT1, followed by determination of the ability of transfected cells to take up radiolabeled uric acid. The activity of compounds as URAT1 inhibitors is evaluated by their ability to block uric acid uptake by transfected cells.
# Test Compounds and Chemicals:
# Urate (50-60 mCi/mmol; American Radio Chemicals, Cat. No. ARC0513).
# Subcloning of hURAT1 into the Expression Vector:
# Plasmid vector pCMV6-XL5 containing hURAT1 cDNA (Cat. No. SC125624) and the expression vector pCMV6-Neo (Cat. No. pCMVNEO) were obtained from OriGene Technologies, Inc. The full-length hURAT1 cDNA was obtained from the vector pCMV6-XL5 and subcloned into the expression vector pCMV6-Neo to create the hURAT1 expression plasmid pCMV6-hURAT1. The sequences were verified by automatic DNA sequencing.
# Cell Culture, Transfection of URAT1 Expressing Plasmids and the Establishment of Stably Expressing HEK Cells for hURAT1:
# For transfection experiments, cells were plated on 60 mm dishes in 1 ml media per dish. […] Stable transfectants expressing hURAT1 (herein after referred as hURAT1-HEK cells) or cells having only the expression vector pCMV6-Neo (herein after referred as mock-HEK cells) were verified using reverse transcription polymerase chain reaction (RT-PCR) methods.
# [8-^14C] Urate Uptake Assay:
# Before the uptake assay started, the culture medium was removed and the cells were incubated for 5 min in 0.6 ml of HBSS. After that HBSS was removed, the prepared reaction solutions were added into each well and incubated for 5 min at room temperature. Then the reaction solution was removed, cells were washed twice with 0.6 ml of cold HBSS and lysed with 0.2 ml of 0.1 M NaOH for 20 min. […] Test compounds were dissolved in DMSO and the same concentration of DMSO was added into the wells of mock-HEK cells and the hURAT1-HEK cells that didn't contain test compounds. For each test compound, the uptake assay was performed 2 times and carried out in triplicate. Urate uptake of the cells for each test condition was presented as the average percent inhibition in comparison to the DMSO control. The radioactivity values obtained for the wells that contained DMSO were taken as 100% uptake of the cells. The observed concentration-percent inhibition data were fitted to a sigmoidal concentration-effect model, where: % Inhibition=(100*Conc^Slope)/(IC50^Slope+Conc^Slope)
# In this example the compounds were not necessarily tested simultaneously.
# [1] = Mouse oral single-dose pharmacokinetic study with Compound EB; assay type: in vivo; details: 100 mg/kg single oral gavage
# Protocol: Mouse Oral Single-Dose Pharmacokinetic Study with Compound EB
# Determination of the Plasma profile of Compound EB following single oral gavage administration to male mice:
# Test compounds were suspended in 1% HPMC using a tissue homogenizer to minimize particles and maximize uniformity of the suspension and stored at 4° C. The formulations was thoroughly mixed just prior to administration. A dose of 100 mg/kg of Compound EB or vehicle (1% HPMC) was administered to male mice by single oral gavage. Mice were placed in urine collectors after dosing for 5 hours, and the total urine output for 5 hours was collected. Samples were frozen at −80° C. until analyzed using LC/MS-MS.
# At 0, 0.5, 1, 2, 4, 6, 8 and 24 hours post-dose time points, blood samples (0.4 mL) were collected by orbital sinus bleeds in K3EDTA tubes. The blood samples were centrifuged within 30 minutes of collection under refrigeration (2-8° C.) for 7 minutes at 6000 rpm. Following centrifugation, the plasma were harvested into a single tube for each animal at each time point and immediately frozen at −80° C. until analyzed using LC/MS-MS. Data was subjected to pharmacokinetic analyses using WinNonlin Standard (v2.1, Pharsight Corporation) and Microsoft EXCEL.
# 1. Mice received single oral gavage of Compound EB, 100 mg/kg, and plasma was collected at certain times.
# 2. Plasma was stored at −80° C. until the day of analysis.
# 3. Samples were thawed on 37° C. bath for 5 min and vortexed at top speed for 10 sec.
# 4. Mouse plasma, 0.1 mL was mixed with 0.2 mL Acetonitrile, vortexed 1 min, spun down 14000 rpm, 17000 g, at 4° C., for 25 min.
# 5. Supernatants were filtered through 0.45 micron, 4 mm, PTFE membrane syringe filter (Phenomenex # AF0-3102-52), and 13 microL were injected and resolved on Luna 3 micron, 100 A pore, C8(2), 150×3 mm, reverse phase column (Phenomenex#00F-4248-YO, SN#259151-7) in 50 min linear gradient from 40% to 69% of (0.1% Formic Acid, 89.9% Acetonitrile, 10% Methanol) at 0.25 mL/min, 100 bar, 37° C. column temperature, method 406975M1, Sequence 1029-08A, Agilent 1100 LC-MS.
# All samples were run in duplicate, 210 nm and 230 nm Absorbances, Negative and Positive ionization spectrograms recorded.
# Step 1. Plasma from “Vehicle” animals (pooled), 0.095 mL, was mixed with 0.005 mL 20× stock of Compound EB in Methanol to make 500 microM, 250 microM, 125 microM, . . . , concentrations of Compound EB in plasma.
# For example: 95 microL plasma+5 microL of 10 mM Compound EB in methanol=0.1 mL plasma with 500 microM Compound EB.
# Step 2. Samples from step 1 were vortexed for 10 sec at top speed.
# Step 3. 0.2 mL of acetonitrile was added to all samples from Step 2, and all vials were vortexed at top speed for 1 min.
# Step 4. All samples from step 3 were spun down 14000 rpm, 17000 g, at 4° C., for 25 min.
# Step 5. Supernatants were filtered through 0.45 micron, 4 mm, PTFE membrane syringe filter (Phenomenex # AF0-3102-52), 13 microL were injected and resolved on Luna 3 micron, 100 A pore, C8(2), 150×3 mm, reverse phase column
# Sequence of human URAT1 (Q96S37 whole entry): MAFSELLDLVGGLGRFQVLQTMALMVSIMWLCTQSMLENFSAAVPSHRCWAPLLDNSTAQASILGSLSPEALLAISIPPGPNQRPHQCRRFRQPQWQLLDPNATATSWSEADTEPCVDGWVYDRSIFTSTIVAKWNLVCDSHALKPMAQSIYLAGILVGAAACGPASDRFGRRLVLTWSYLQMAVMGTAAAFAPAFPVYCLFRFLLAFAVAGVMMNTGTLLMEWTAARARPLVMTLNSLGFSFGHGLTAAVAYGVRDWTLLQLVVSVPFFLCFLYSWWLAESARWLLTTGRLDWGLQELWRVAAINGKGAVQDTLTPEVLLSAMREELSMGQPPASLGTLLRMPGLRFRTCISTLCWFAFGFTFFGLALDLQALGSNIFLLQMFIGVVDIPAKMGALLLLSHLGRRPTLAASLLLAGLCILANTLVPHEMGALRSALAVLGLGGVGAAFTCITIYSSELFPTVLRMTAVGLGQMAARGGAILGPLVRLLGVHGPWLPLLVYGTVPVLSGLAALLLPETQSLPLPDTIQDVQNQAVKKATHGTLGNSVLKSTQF
smiles,measurement,setting,value
"Cc1cccc(C)c1COc1cccc(-c2nnn[nH]2)c1 [Compound EB, 5-(3-(2,6-Dimethylbenzyloxy)phenyl)-1H-tetrazole]",inhibition at 10 µM,"human URAT1; 10 μM, hURAT1-HEK cells",90%
same,IC50,human URAT1; 14C urate uptake in hURAT1-HEK cells,930 nM
same,Detection in mouse plasma (in words),[1]; LC-MS,readily detected
same,"Compound EB concentr. in plasma, individual animals","[1]; male mice, bleed time 0 HR",0 µg/mL
same,"Compound EB concentr. in plasma, individual animals","[1]; male mice, bleed time 0.5 HR",207.5 µg/mL and 134.2 µg/mL
same,"Compound EB concentr. in plasma, individual animals","[1]; male mice, bleed time 1 HR",139.7 µg/mL and 157.6 µg/mL
same,"Compound EB concentr. in plasma, individual animals","[1]; male mice, bleed time 2 HR",139.9 µg/mL and 187.6 µg/mL and 82.4 µg/mL
same,"Compound EB concentr. in plasma, individual animals","[1]; male mice, bleed time 4 HR",74.9 µg/mL and 92.1 µg/mL and 39.6 µg/mL
same,"Compound EB concentr. in plasma, individual animals","[1]; male mice, bleed time 6 HR",79.9 µg/mL and 48 µg/mL
same,"Compound EB concentr. in plasma, individual animals","[1]; male mice, bleed time 8 HR",18.2 µg/mL and 10.7 µg/mL and 0 µg/mL
same,"Compound EB concentr. in plasma, individual animals","[1]; male mice, bleed time 24 HR",0 µg/mL
same,AUC0-24,"[1]; male mice, plasma",AUC0-24: 796 μg/mL
same,concentration at 0 h,"[1]; male, mouse, plasma, po, 100 mg/kg, male mice, 0 hr, read-out: Compound EB concentration in plasma, average",0 ng/mL
same,concentration at 0.5 h,"[1]; male, mouse, plasma, po, 100 mg/kg, male mice, 0.5 hr, read-out: Compound EB concentration in plasma, average",183 µg/mL
same,concentration at 1 h,"[1]; male, mouse, plasma, po, 100 mg/kg, male mice, 1 hr, read-out: Compound EB concentration in plasma, average",169 µg/mL
same,concentration at 2 h,"[1]; male, mouse, plasma, po, 100 mg/kg, male mice, 2 hr",137 µg/mL
same,concentration at 4 h,"[1]; male, mouse, plasma, po, 100 mg/kg, male mice, 4 hr",69 µg/mL
same,concentration at 6 h,"[1]; male, mouse, plasma, po, 100 mg/kg, male mice, 6 hr, read-out: Compound EB concentration in plasma, average",62 µg/mL
same,concentration at 8 h,"[1]; male, mouse, plasma, po, 100 mg/kg, male mice, 8 hr",10 µg/mL
same,concentration at 24 h,"[1]; male, mouse, plasma, po, 100 mg/kg, male mice, 24 hr, read-out: Compound EB concentration in plasma, average",3 µg/mL
same,concentration at 0 h,"[1]; male, mouse, plasma, po, 100 mg/kg, male mice, bleed time 0 HR, read-out: Compound EB concentr. in plasma, individual animals",0 ng/mL
same,concentration at 0.5 h,"[1]; male, mouse, plasma, po, 100 mg/kg, male mice, bleed time 0.5 HR, read-out: Compound EB concentr. in plasma, individual animals",206 µg/mL
same,concentration at 1 h,"[1]; male, mouse, plasma, po, 100 mg/kg, male mice, bleed time 1 HR, read-out: Compound EB concentr. in plasma, individual animals",210 µg/mL
same,concentration at 6 h,"[1]; male, mouse, plasma, po, 100 mg/kg, male mice, bleed time 6 HR, read-out: Compound EB concentr. in plasma, individual animals",58.7 µg/mL
same,concentration at 24 h,"[1]; male, mouse, plasma, po, 100 mg/kg, male mice, bleed time 24 HR, read-out: Compound EB concentr. in plasma, individual animals",0 µg/mL
same,Cmax,"[1]; mouse, male mice, plasma",210 µg/mL
